Experimental data taken from the supplement of paper PMC10307832.

Tests used:
Experiment in all cases: relative viability (nuclei count vs DMSO), 5 days (fraction); higher = more cells survive
[1] = compound: COc1cc(-c2nn([C@H]3CC[C@H](N4CCN(C(C)=O)CC4)CC3)c3ncnc(N)c23)ccc1NC(=O)c1cc2ccccc2n1C + N=C(N)NC(=N)NCCc1ccccc1 [Phenformin] (partner 250 µM)
In short: (§1)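 Relative viability divides the nuclei count in treated wells by that in vehicle wells. Lung cancer cell lines were seeded in 1536-well plates, dosed by pin tool the next day, and fixed and stained after 5 days in one step with final 0.05% Triton X-100, 1% formaldehyde and 1 ug/ml Hoechst. Dosing was a single drug or a fixed anchor-drug dose plus five library-drug doses (not always all listed) in √10 steps, and values are medians of duplicate plates imaged at 4×.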

Midostaurin + AZD7762 = compound: CO[C@@H]1[C@H](N(C)C(=O)c2ccccc2)C[C@H]2O[C@]1(C)n1c3ccccc3c3c4c(c5c6ccccc6n2c5c31)C(=O)NC4 [Midostaurin] + NC(=O)Nc1cc(-c2cccc(F)c2)sc1C(=O)N[C@H]1CCCNC1 [AZD7762] (partner 0.2 µM)
In short: as §1

[2] = compound: COc1cc(-c2nn([C@H]3CC[C@H](N4CCN(C(C)=O)CC4)CC3)c3ncnc(N)c23)ccc1NC(=O)c1cc2ccccc2n1C + O=C(c1cc(Cc2n[nH]c(=O)c3ccccc23)ccc1F)N1CCN(C(=O)C2CC2)CC1 [Olaparib] (partner 8 µM)
In short: as §1

Midostaurin + Luminespib = compound: CO[C@@H]1[C@H](N(C)C(=O)c2ccccc2)C[C@H]2O[C@]1(C)n1c3ccccc3c3c4c(c5c6ccccc6n2c5c31)C(=O)NC4 [Midostaurin] + CCNC(=O)c1noc(-c2cc(C(C)C)c(O)cc2O)c1-c1ccc(CN2CCOCC2)cc1 [Luminespib] (partner 0.01 µM)
In short: as §1

Midostaurin + Trametinib = compound: CO[C@@H]1[C@H](N(C)C(=O)c2ccccc2)C[C@H]2O[C@]1(C)n1c3ccccc3c3c4c(c5c6ccccc6n2c5c31)C(=O)NC4 [Midostaurin] + CC(=O)Nc1cccc(-n2c(=O)n(C3CC3)c(=O)c3c(Nc4ccc(I)cc4F)n(C)c(=O)c(C)c32)c1 [Trametinib] (partner 0.02 µM)
In short: as §1

Cell Line | relative viability ([1]; first compound 0.0128 µM) | relative viability ([1]; first compound 0.04048 µM) | relative viability ([1]; first compound 0.128 µM) | relative viability ([1]; first compound 1.28 µM) | relative viability (Midostaurin + AZD7762; first compound 0.01 µM) | relative viability (Midostaurin + AZD7762; first compound 0.03162 µM) | relative viability (Midostaurin + AZD7762; first compound 0.1 µM) | relative viability (Midostaurin + AZD7762; first compound 0.3162 µM) | relative viability ([2]; first compound 0.0128 µM) | relative viability ([2]; first compound 0.04048 µM) | relative viability ([2]; first compound 0.128 µM) | relative viability ([2]; first compound 1.28 µM) | relative viability (Midostaurin + Luminespib; first compound 0.01 µM) | relative viability (Midostaurin + Luminespib; first compound 0.03162 µM) | relative viability (Midostaurin + Luminespib; first compound 0.1 µM) | relative viability (Midostaurin + Luminespib; first compound 0.3162 µM) | relative viability (Midostaurin + Trametinib; first compound 0.01 µM) | relative viability (Midostaurin + Trametinib; first compound 0.03162 µM) | relative viability (Midostaurin + Trametinib; first compound 0.1 µM) | relative viability (Midostaurin + Trametinib; first compound 0.3162 µM)
201T | 0.448 | 0.446 | 0.401 | 0.353 | 0.509 | 0.687 | 0.595 | 0.66 | 0.899 | 0.896 | 0.767 | 0.623 | 1.02 | 0.98 | 0.997 | 1.06 | 0.714 | 0.707 | 0.755 | 0.795
A549 | 0.178 | 0.203 | 0.151 | 0.185 | – | – | – | – | 0.302 | 0.47 | 0.465 | 0.271 | – | – | – | – | – | – | – | –
A-427 | 0.335 | – | 0.268 | 0.254 | 0.742 | 0.727 | 0.871 | 0.723 | 0.768 | 0.737 | 0.782 | 0.754 | 0.869 | 0.905 | 0.753 | 0.953 | 0.671 | 0.809 | 0.712 | 0.637
ABC-1 | 0.231 | 0.245 | 0.225 | 0.243 | 0.844 | 0.824 | 0.729 | – | 0.6 | 0.835 | 0.665 | 0.806 | – | 0.571 | 0.641 | 0.591 | – | – | – | –
BEN | 0.235 | 0.272 | 0.276 | 0.218 | 0.743 | 0.659 | 0.722 | 0.726 | 1.1 | 1.05 | 1.02 | 0.848 | 0.541 | 1.23 | 0.396 | 0.457 | 1.05 | 0.976 | 1.06 | 1.25
CAL-12T | 0.588 | 0.465 | 0.572 | 0.416 | 0.608 | 0.553 | 0.469 | 0.452 | 0.682 | 0.763 | 0.811 | 0.697 | 0.174 | 0.172 | 0.212 | 0.174 | 0.399 | 0.298 | 0.331 | 0.33
COR-L23 | 0.424 | 0.559 | 0.413 | 0.434 | – | – | – | – | 0.347 | 0.41 | 0.367 | 0.395 | 0.605 | 0.644 | 0.541 | 0.625 | 0.599 | 0.555 | 0.573 | 0.497
COR-L 105 | 0.474 | 0.58 | 0.4 | 0.232 | – | – | – | – | 0.798 | 0.676 | 0.594 | 0.478 | 0.597 | 0.686 | 0.777 | 0.621 | 0.483 | 0.445 | 0.433 | 0.477
Calu-6 | – | – | – | – | – | – | – | – | 0.581 | 0.611 | 0.516 | 0.424 | – | – | – | – | – | – | – | –
ChaGo-K-1 | 0.472 | 0.491 | 0.417 | 0.431 | 0.895 | 0.837 | 0.677 | 0.946 | 0.488 | 0.452 | 0.409 | 0.328 | 0.619 | 0.627 | 0.525 | 0.626 | 0.949 | 0.963 | 0.806 | 0.915
